Measured values from paper PMC3506268, “Microneedle pretreatment enhances the percutaneous permeation of hydrophilic compounds with high melting points” (BMC Pharmacology & Toxicology, 2012).
Read-outs that look alike come from different tables or passages of the source.

What was measured:
[1] = in vitro; settings: for Jmax: 80% saturated solution in PBS, 6 h; for Jmax / Papp at 6 h / recovery: mean, n = 5–6; for Papp at 6 h / recovery: female, Holstein Friesian, bovine; for Papp at 6 h: 10^-6 Papp
Procedure: The skin was obtained from bovine udders, all of which were harvested from Holstein Friesian cows which died at a slaughterhouse for food production, and the cleaned skin samples were stored at - 20°C until use. After thawing at room temperature split skin samples with a thickness of 600 μm ± 50 μm were produced using an electrical microtome (Zimmer, Eschbach, Germany), whereby damaged skin samples were excluded from the study.
Prior to the experiment split skin samples with appropriate size of 2 x 2 cm were incubated in phosphate buffered saline (PBS) for 30 minutes. They were placed on a styropor panel and fixed with needles beyond the subsequent diffusion area of the skin samples before the microneedle rollers were rolled in four axes radial over the skin surface (Figure 1 C).
The diffusion experiments were performed in Franz-type diffusion cells obtained from PermeGear (Riegelsville, PA, USA) with a receptor chamber of approximately 12 ml and a diffusion area of approximately 1.77 cm². Sonicated PBS was used as receptor fluid. […] The donor chambers were covered with parafilm® (American Can Company, Baltimore, USA) and were checked for precipitation of the compounds during the whole experiment. Aliquots were taken from the receptor fluid and replaced by the same amount of fresh PBS at 0, 0.5, 1, 2, 4, and 6 hours. Each treatment (untreated control, 200 μm microneedle, and 300 μm microneedle) was performed in duplicate per animal (n = 6).
The receptor fluid samples (100 μl) were analysed by high-performance liquid-chromatography, the methodology of which has derived from recent studies. […] The separation took place on a reversed phase column (LiChroCART 125–4, LiChrospher 100 RP-18e, 5 μm (Merck, Darmstadt, Germany)), which was maintained at 40°C.
The linear part of the gradient of the permeation curve (time vs. concentration in the receptor fluid) represents the maximum flux Jmax (μg/cm²/h) and is employed to calculate the apparent permeability coefficient Papp (cm/s) according to Niedorf et al. 2008 [23]. Differences between control samples and pretreated skin samples were evaluated by Friedman test followed by Dunn´s multiple comparison test (GraphPad Prism 4.01 (GraphPad Software Inc., San Diego, USA). A 0.05 significance level was adopted.

[2] = design: method as in earlier work; settings: cited from earlier work
[3] = design: method as in PMID 20624460; settings: microneedle treated skin, in vitro; cited from earlier work
[4] = 200 μm microneedle pretreatment
[5] = 300 μm microneedle pretreatment
[6] = 300 μm microneedle pretreatment, * = p<0.05 versus control

Jmax [1, 4] [μg/cm²/h]	Increase of maximum flux (Jmax) and Papp-value versus untreated skin [1, 5]	Jmax [1, 5] [μg/cm²/h]	Papp at 6 h [1, 6] [×10⁻⁶ cm/s]	Papp at 6 h ([1]; untreated control skin) [×10⁻⁶ cm/s]	recovery [1, 4] [%]	recovery [1, 5] [%]	recovery ([1]; untreated control skin) [%]	Jmax ([1]; untreated control skin) [μg/cm²/h]	Higher flux through pretreated skin compared to untreated skin [1, 4]	Higher flux through pretreated skin compared to untreated skin [1, 5]	Papp at 6 h [1, 4] [×10⁻⁶ cm/s]	SMILES	logKo/w [2]	logKo/w ([2]; listed as diclofenac)	Permeation enhancement [3]
8.75	≤ 7 fold	11.55	1.24	0.18	3.17	3.54	0.49	1.72	–	–	–	O=C(O)Cc1ccccc1Nc1c(Cl)cccc1Cl [Diclofenac]	0.7	< 1	–
–	up to 3 fold	–	–	–	11.2	17.8	6.76	–	twofold	threefold	–	CC(C)Cc1ccc(C(C)C(=O)O)cc1 (stereo not drawn) [Ibuprofen, ibuprofen]	–	–	–
2.36	up to 3 fold	2.99	0.35	0.12	0.76	0.96	0.3	1.03	twofold	threefold	0.28	CC(C(=O)O)c1cccc(C(=O)c2ccccc2)c1 (stereo not drawn) [Ketoprofen, ketoprofen]	–	–	–
–	–	–	–	–	–	–	–	–	–	–	–	CC(=O)Oc1ccccc1C(=O)O [acetylsalicylic acid]	–	–	up to 2 times
